Activity calls are given as the source filed them. How the calls were made is not given here.

This assay deals with Glycogen synthase kinase-3 beta (Homo sapiens) (UniProt P49841). As to the kind of experiment: NPC library primary assay, GSK-3β enzyme inhibitors, biochemical, Homo sapiens, LANCE Ultra TR-FRET detection (AID 1117355). The note with it: LANCE Ultra TR-FRET kinase activity; at 20 µM (top of the series). In general terms: Time-resolved FRET reads energy transfer from a long-lived donor to a nearby acceptor.
Chain of Glycogen synthase kinase-3 beta (Homo sapiens) (P49841 whole entry, looked up): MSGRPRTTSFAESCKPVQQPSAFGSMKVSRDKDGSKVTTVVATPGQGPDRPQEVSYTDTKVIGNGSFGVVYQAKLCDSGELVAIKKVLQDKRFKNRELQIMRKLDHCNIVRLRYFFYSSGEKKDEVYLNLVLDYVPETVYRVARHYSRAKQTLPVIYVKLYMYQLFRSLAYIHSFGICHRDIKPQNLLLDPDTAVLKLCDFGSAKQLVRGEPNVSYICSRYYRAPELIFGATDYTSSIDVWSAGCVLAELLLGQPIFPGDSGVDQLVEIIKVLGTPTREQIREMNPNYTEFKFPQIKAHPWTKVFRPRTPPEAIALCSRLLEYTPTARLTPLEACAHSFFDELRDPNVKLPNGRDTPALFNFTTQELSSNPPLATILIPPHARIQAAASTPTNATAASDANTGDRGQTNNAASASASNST
With `Cc1ccccc1C(=O)Nc1ccc(C(=O)N2CCCC(N(C)C)c3ccccc32)cc1` (centres undefined), the inhibition (as a rule, the drop in the measured response relative to a control, in per cent) was 18.2% (inactive).
With `Oc1c(Cl)cc(Cl)cc1Sc1cc(Cl)cc(Cl)c1O` the figure was 81.3%; with `CCC(C)n1ncn(-c2ccc(N3CCN(c4ccc(OC[C@H]5CO[C@](Cn6cncn6)(c6ccc(Cl)cc6Cl)O5)cc4)CC3)cc2)c1=O` (some centres undefined), 14.1% (inactive); with `CCCCCCNC(=O)n1cc(F)c(=O)[nH]c1=O`, -7.61% (inactive).
With `CC(C)(C)C1CCC(CC2=C(O)c3ccccc3C(=O)C2=O)CC1` (centres undefined) the figure was 10.2% (inactive); with `CN(C)c1ccc2nc3ccc(=[N+](C)C)cc-3sc2c1`, -210% (inactive).
With `Nc1ccc2cc3ccc(N)cc3nc2c1` the figure was -57.5% (inactive); with `O=C(Nc1ccc([N+](=O)[O-])cc1Cl)c1cc(Cl)ccc1O`, -11.3% (inactive).
`CC(C)(C)C(=O)OCOP(=O)(COCCn1cnc2c(N)ncnc21)OCOC(=O)C(C)(C)C`: the inhibition was 7.97% (inactive).
With `CCCCCCCCCCCCCC[N+](C)(C)C` the figure was -4.51% (inactive).
With `CC[C@]1(O)C[C@@H]2CN(CCc3c([nH]c4ccccc34)[C@@](C(=O)OC)(c3cc4c(cc3OC)N(C)[C@H]3[C@@](O)(C(=O)OC)[C@H](OC(C)=O)[C@]5(CC)C=CCN6CC[C@]43[C@@H]65)C2)C1` the figure was -4.66% (inactive); with `Cc1cc(C)c(/C=C2\C(=O)Nc3ccccc32)[nH]1`, -34.3% (inactive); with `COc1ccc2cc1Oc1ccc(cc1)C[C@H]1c3c(cc4c(c3Oc3cc5c(cc3OC)CCN(C)[C@@H]5C2)OCO4)CCN1C`, 2.24% (inactive).
With `Oc1c(I)cc(I)c2cccnc12` the figure was -1.57% (inactive).
`O=C(CCl)c1ccc(Cl)cc1Cl`: the inhibition was 9.91% (inactive).
With `O=[N+]([O-])c1ccc(O)c2ncccc12` the figure was -9.81% (inactive); with `COc1cc(-c2ccc(=O)[nH]n2)ccc1OC(F)F`, -21.7% (inactive); with `CC[C@@H]([C@H](C)O)n1ncn(-c2ccc(N3CCN(c4ccc(OC[C@@H]5CO[C@@](Cn6cncn6)(c6ccc(F)cc6F)C5)cc4)CC3)cc2)c1=O`, 8.55% (inactive).
`Cc1ccc([N+](=O)[O-])[c]2c1[O][Hg]2`: the inhibition is 66.1%.
With `CSc1ccc2c(c1)C(N1CCN(C)CC1)Cc1ccccc1S2` (centres undefined) the figure was 0.73% (inactive).
With `Cc1cc(=O)c2c(O)c3c(O)cc(=O)c4c3c3c(cc(O)c1c23)C(C)(C)C=4O` the figure was 60.6%; with `O=c1c(-c2ccccc2)c1-c1ccccc1`, 31.4% (inactive).
For the molecule `Cc1cc2c(C(C)C)c(O)c(O)c(C=O)c2c(O)c1-c1c(C)cc2c(C(C)C)c(O)c(O)c(C=O)c2c1O`, the inhibition was 7.52% (inactive).
With `COc1cc([C@@H]2c3cc4c(cc3[C@H](O)[C@H]3COC(=O)[C@H]23)OCO4)cc(OC)c1OC` the figure was 26.6% (inactive); with `Cc1nc2ccc(CN(C)c3ccc(C(=O)N[C@@H](CCC(=O)O)C(=O)O)s3)cc2c(=O)[nH]1`, 81.3%.
With `Cn1cnc([N+](=O)[O-])c1Sc1ncnc2nc[nH]c12` the figure was -18.2% (inactive); with `O=C(O)c1ccc(-n2nc(-c3ccccc3O)nc2-c2ccccc2O)cc1`, 37.5% (inactive).
With `COc1c(C)c2c(c(O)c1C/C=C(\C)CCC(=O)OCCN1CCOCC1)C(=O)OC2` the figure was 11.3% (inactive); with `CC(C)C[C@H](NC(=O)[C@H](Cc1ccccc1)NC(=O)c1cnccn1)B(O)O`, 1.64% (inactive).
Turning to `COc1cc2c(c(OC)c1OC)-c1ccc(OC)c(=O)cc1[C@@H](NC(C)=O)CC2`, the inhibition was 4.13% (inactive).
With `CCCCCCCCCCCCCCCCCCNC(=O)OC1CCN(C(=O)OC[C@H](COC(=O)N(Cc2cccc[n+]2CC)C(=O)c2ccccc2OC)OC)CC1` the figure was 24% (inactive).
With `CCCCC1C(=O)N(c2ccccc2)N(c2ccc(O)cc2)C1=O` (centres undefined) the figure was 5.48% (inactive).
With `Cc1ccc2nc(N)[nH]c(=O)c2c1Sc1ccncc1` the figure was -35.9% (inactive).
`COC(=O)Nc1nc2ccc(S(=O)c3ccccc3)cc2[nH]1` (centres undefined): the inhibition is -3.53% (inactive).
Consider `COC(=O)Nc1nc2ccc(Sc3ccccc3)cc2[nH]1`, for which the inhibition is -21% (inactive).
With `COc1cc(NCc2ccc3nc(N)nc(N)c3c2C)cc(OC)c1OC` the figure was 2.46% (inactive); with `C=C(C)[C@H]1Cc2c(ccc3c2O[C@@H]2COc4cc(OC)c(OC)cc4[C@@H]2C3=O)O1`, 21.6% (inactive); with `CCN(CC)CCNc1ccc(CO)c2sc3ccccc3c(=O)c12`, 24.6% (inactive).
With `CC[C@]1(O)C[C@H]2CN(CCc3c([nH]c4ccccc34)[C@@](C(=O)OC)(c3cc4c(cc3OC)N(C=O)[C@H]3[C@@](O)(C(=O)OC)[C@H](OC(C)=O)[C@]5(CC)C=CCN6CC[C@]43[C@@H]65)C2)C1` the figure was -0.84% (inactive).
With `COc1cc2nc(N3CCN(C(=O)c4ccco4)CC3)nc(N)c2cc1OC` the figure was -50.4% (inactive).
For the molecule `CCCOc1ccc2nc(NC(=O)OC)[nH]c2c1`, the inhibition is -5.09% (inactive).
With `C[n+]1c2cc(N)ccc2cc2ccc(N)cc21` (tested in a mixture with another compound) the figure was -24.7% (inactive); with `COC(=O)c1nc(Cl)c(Cl)nc1N`, 20.8% (inactive); with `CCc1nc(N)nc(N)c1-c1ccc(Cl)cc1`, -8.63% (inactive).
With `CCN(CC)CCOc1ccc(/C(=C(\Cl)c2ccccc2)c2ccccc2)cc1` the figure was -11.9% (inactive).
Turning to `COc1cccc2c1C(=O)c1c(O)c3c(c(O)c1C2=O)C[C@@](O)(C(C)=O)C[C@@H]3O[C@H]1C[C@H](N)[C@H](O)[C@H](C)O1`, the inhibition was 7.12% (inactive).
With `CC[C@@]1(O)C(=O)OCc2c1cc1n(c2=O)Cc2c-1nc1ccccc1c2/C=N/OC(C)(C)C` the figure was 16.9% (inactive); with `COC(=O)Nc1nc2ccc(C(=O)c3ccccc3)cc2[nH]1`, 25.4% (inactive).
With `COc1ccc(-c2ccc3cc(C(=O)O)ccc3c2)cc1C12CC3CC(CC(C3)C1)C2` the figure was 79.4%.
With `COc1ccc(-c2nc3ccc(C4=NNC(=O)CC4C)cc3[nH]2)cc1` (centres undefined) the figure was -64.9% (inactive); with `CCCSc1ccc2nc(NC(=O)OC)[nH]c2c1`, -11.3% (inactive); with `O=C1c2c(O)ccc(O)c2C(=O)c2c(NCCNCCO)ccc(NCCNCCO)c21`, -5.18% (inactive).
With `C=CC(=O)Nc1cc2c(Nc3ccc(F)c(Cl)c3)ncnc2cc1OCCCN1CCOCC1`, the inhibition is 31.2% (inactive).
With `CCN(CC)CCNC(=O)c1c(C)[nH]c(/C=C2\C(=O)Nc3ccc(F)cc32)c1C` the figure was 62.9%.
With `O=c1[nH]c(=O)n([C@H]2C[C@H](O)[C@@H](CO)O2)cc1C(F)(F)F` the figure was 17.2% (inactive); with `CC(=O)Oc1ccc(C2(c3ccc(OC(C)=O)cc3)Oc3ccccc3NC2=O)cc1`, 19% (inactive).
With `Cc1nc(Nc2ncc(C(=O)Nc3c(C)cccc3Cl)s2)cc(N2CCN(CCO)CC2)n1` the figure was 38.8% (inactive); with `S=c1nc[nH]c2nc[nH]c12`, 20.7% (inactive).
For `Cc1cc(O)c2ccccc2c1O`, the inhibition was 50.4%.
With `O=C(NOCC1CC1)c1ccc(F)c(F)c1Nc1ccc(I)cc1Cl` the figure was -12.6% (inactive).
With `C[C@@]12C(=O)OC(=O)[C@]1(C)C1CCC2O1` the figure was 2.16% (inactive); with `CCCN(CCC)C(=O)C(CCC(=O)OCCCN1CCN(CCOC(=O)Cc2c(C)n(C(=O)c3ccc(Cl)cc3)c3ccc(OC)cc23)CC1)NC(=O)c1ccccc1` (centres undefined), 0.27% (inactive); with `[O-][n+]1ccccc1SSc1cccc[n+]1[O-]`, -25.6% (inactive).
With `COCc1c(C(C)C)nc(C(C)C)c(/C=C/[C@@H](O)C[C@@H](O)CC(=O)O)c1-c1ccc(F)cc1` the figure was 3.27% (inactive); with `Cc1nc(N)nc(N)c1-c1ccc(Cl)c(Cl)c1`, -1.14% (inactive); with `Nc1nc(=S)c2[nH]cnc2[nH]1`, -30.7% (inactive).
As for `O=c1[nH]c(=O)n([C@H]2C[C@H](O)[C@@H](CO)O2)cc1F`, the inhibition is -21.3% (inactive).
Regarding `COC(=O)Nc1nc2ccc(C(=O)C3CC3)cc2[nH]1`, the inhibition is 54.4%.
With `CCC1=C[C@@H]2CN(C1)Cc1c([nH]c3ccccc13)[C@@](C(=O)OC)(c1cc3c(cc1OC)N(C)[C@H]1[C@@](O)(C(=O)OC)[C@H](OC(C)=O)[C@]4(CC)C=CCN5CC[C@]31[C@@H]54)C2` the figure was 24.2% (inactive).
With `NC(=NCCCCCCN=C(N)/N=C(\N)Nc1ccc(Cl)cc1)/N=C(\N)Nc1ccc(Cl)cc1` the figure was 0.77% (inactive); with `CCCCCCCCCCCCCCCC[n+]1ccccc1`, -21.5% (inactive); with `COC(=O)[C@H]1[C@H]2C[C@@H]3c4[nH]c5cc(OC)ccc5c4CCN3C[C@H]2C[C@@H](OC(=O)/C=C/c2ccc(O)c(OC)c2)[C@@H]1OC`, 7.56% (inactive).
With `CC(=O)[C@]1(O)Cc2c(O)c3c(c(O)c2[C@@H](O[C@H]2C[C@H](N)[C@H](O)[C@H](C)O2)C1)C(=O)c1ccccc1C3=O` the figure was 5.63% (inactive); with `Oc1c(Cl)cc(Cl)c2cccnc12`, -26.5% (inactive); with `O=C(CCCCCCC(=O)Nc1ccccc1)NO`, -28.8% (inactive).
Take `CCCCc1oc2ccccc2c1C(=O)c1cc(I)c(OCCN(CC)CC)c(I)c1`: the inhibition is 26% (inactive).
With `CN1CC[C@H](c2c(O)cc(O)c3c(=O)cc(-c4ccccc4Cl)oc23)[C@H](O)C1` the figure was 99.9%; with `CNC(=O)c1cc(Oc2ccc(NC(=O)Nc3ccc(Cl)c(C(F)(F)F)c3)cc2)ccn1`, 47.6% (inactive); with `COC(=O)Nc1nc2ccc(C(=O)c3cccs3)cc2[nH]1`, 42.2% (inactive).
